Laboratory results taken from publication PMC9956102, “Structural Insights on Hyp-Gly-Containing Peptides as Antiplatelet Compounds through Topomer CoMFA and CoMSIA Analysis” (Foods, 2023).
pIC50: −log10 of the molar value. Where a name gives a salt, the structure may show the parent alone. Peptide text beside a SMILES is read from it.

tested on: ADP-induced platelet aggregation; test: not given; type: cell-based, rat; details: not given
Procedure: The platelet was isolated from rat aorta blood and mixed with sodium citrate (1:9, v/v) as previously described with some modifications. Briefly, anticoagulated blood was centrifuged (50× g, 10 min) to obtain platelet-rich plasma (PRP). The residue was centrifuged at 750× g for 10 min to collect the platelet-poor plasma (PPP), and PRP was diluted to 2–3 × 10^8 with PPP.
Inhibition of platelet aggregation induced by ADP was measured with a four-channel aggregometer as previously described. Aliquots of 270 μL of PRP were incubated with 30 μL of PPP or peptides with different concentrations at 37 °C for 5 min. After incubation, platelet aggregation was induced by adding 30 μL of ADP (0.1 mM). The platelet aggregation at 5 min was recorded, and the inhibition rate was calculated as follows. Inhibition of platelet aggregation (%) = [1 − platelet aggregation (sample)/platelet aggregation (control)] × 100
The IC50 value of platelet aggregation was calculated by Graphpad Prism 6.0.

**Q.** With `CSCC[C@H](NC(=O)[C@@H]1CCCN1C(=O)CNC(=O)[C@@H]1CCCN1C(=O)[C@@H]1C[C@@H](O)CN1C(=O)CN)C(=O)O` [GOPGPM] (HELM PEPTIDE1{G.[Hyp].P.G.P.M}$$$$V2.0; N-terminus and C-terminus assumed) as the molecule, how does the pIC50 read?
**A.** 2.27

**Q.** With `O=C(O)CC[C@H](NC(=O)CNC(=O)[C@@H]1C[C@@H](O)CN1C(=O)[C@H](CCC(=O)O)NC(=O)CNC(=O)[C@@H]1CCCN1)C(=O)O` [PGEOGE] (HELM PEPTIDE1{P.G.E.[Hyp].G.E}$$$$V2.0; N-terminus and C-terminus assumed) as the molecule, how does the pIC50 read?
**A.** 3.50

**Q.** With `CSCC[C@H](NC(=O)[C@@H]1C[C@@H](O)CN1C(=O)CNC(=O)[C@@H]1C[C@@H](O)CN1)C(=O)NCC(=O)O` [OGOMG] (HELM PEPTIDE1{[Hyp].G.[Hyp].M.G}$$$$V2.0; N-terminus and C-terminus assumed) as the molecule, how does the pIC50 read?
**A.** 2.83

**Q.** With `NCCCC[C@H](NC(=O)[C@@H]1CCCN1C(=O)CNC(=O)[C@@H]1CCCN1)C(=O)O` [PGPK] (H-PGPK-OH) as the molecule, how does the pIC50 read?
**A.** 2.55

**Q.** With `O=C(O)CC[C@H](NC(=O)CNC(=O)[C@@H]1CCCN1)C(=O)N1C[C@H](O)C[C@H]1C(=O)NCC(=O)O` [PGEOG] (HELM PEPTIDE1{P.G.E.[Hyp].G}$$$$V2.0; N-terminus and C-terminus assumed) as the molecule, how does the pIC50 read?
**A.** 3.07

**Q.** With `NCC(=O)N1C[C@H](O)C[C@H]1C(=O)N1C[C@H](O)C[C@H]1C(=O)NCC(=O)N1CCC[C@H]1C(=O)N[C@@H](CCC(N)=O)C(=O)O` [GOOGPQ] (HELM PEPTIDE1{G.[Hyp].[Hyp].G.P.Q}$$$$V2.0; N-terminus and C-terminus assumed) as the molecule, how does the pIC50 read?
**A.** 2.68

**Q.** With `N[C@@H](CCC(=O)O)C(=O)N1C[C@H](O)C[C@H]1C(=O)NCC(=O)O` [EOG] (HELM PEPTIDE1{E.[Hyp].G}$$$$V2.0; N-terminus and C-terminus assumed) as the molecule, how does the pIC50 read?
**A.** 3.40

**Q.** With `O=C(O)CC[C@H](NC(=O)CNC(=O)[C@@H]1CCCN1)C(=O)O` [PGE] (H-Pro-Gly-Glu-OH; N-terminus and C-terminus assumed) as the molecule, how does the pIC50 read?
**A.** 3.03

**Q.** With `O=C(CNC(=O)[C@@H]1CCCN1)N[C@@H](Cc1c[nH]cn1)C(=O)N[C@@H](Cc1c[nH]cn1)C(=O)O` [PGHH] as the molecule, how does the pIC50 read?
**A.** 2.85

**Q.** With `N[C@@H](CCC(=O)O)C(=O)N1C[C@H](O)C[C@H]1C(=O)NCC(=O)N[C@@H](CCC(=O)O)C(=O)O` [EOGE, Glu-Hyp-Gly-Glu] (HELM PEPTIDE1{E.[Hyp].G.E}$$$$V2.0) as the molecule, how does the pIC50 read?
**A.** 3.41

**Q.** With `C[C@H](NC(=O)[C@H](CO)NC(=O)CNC(=O)[C@@H]1C[C@@H](O)CN1)C(=O)O` [OGSA] (HELM PEPTIDE1{[Hyp].G.S.A}$$$$V2.0) as the molecule, how does the pIC50 read?
**A.** 3.20

**Q.** With `NCCCC[C@H](NC(=O)CNC(=O)[C@@H]1CCCN1)C(=O)N1CCC[C@H]1C(=O)O` [PGKP] (H-PGKP-OH) as the molecule, how does the pIC50 read?
**A.** 2.59

**Q.** With `O=C(O)CNC(=O)[C@@H]1CCCN1` [PG] (H-Pro-Gly-OH; N-terminus and C-terminus assumed) as the molecule, how does the pIC50 read?
**A.** 2.44

**Q.** With `O=C(O)C[C@H](NC(=O)CNC(=O)[C@@H]1C[C@@H](O)CN1)C(=O)O` [OGD] (HELM PEPTIDE1{[Hyp].G.D}$$$$V2.0; N-terminus and C-terminus assumed) as the molecule, how does the pIC50 read?
**A.** 3.36

**Q.** With `NCC(=O)N[C@@H](CCC(=O)O)C(=O)N1C[C@H](O)C[C@H]1C(=O)NCC(=O)O` [GEOG] (HELM PEPTIDE1{G.E.[Hyp].G}$$$$V2.0) as the molecule, how does the pIC50 read?
**A.** 3.06

**Q.** With `CC(C)[C@H](N)C(=O)NCC(=O)N1CCC[C@H]1C(=O)N1C[C@H](O)C[C@H]1C(=O)NCC(=O)N1CCC[C@H]1C(=O)N[C@@H](C)C(=O)O` [VGPOGPA] (HELM PEPTIDE1{V.G.P.[Hyp].G.P.A}$$$$V2.0; N-terminus and C-terminus assumed) as the molecule, how does the pIC50 read?
**A.** 2.61

**Q.** With `O=C(NCC(=O)N1CCC[C@H]1C(=O)O)[C@@H]1C[C@@H](O)CN1` [OGP] (HELM PEPTIDE1{[Hyp].G.P}$$$$V2.0; N-terminus and C-terminus assumed) as the molecule, how does the pIC50 read?
**A.** 3.30

**Q.** With `NC(=O)CC[C@H](NC(=O)CNC(=O)[C@@H]1C[C@@H](O)CN1)C(=O)O` [OGQ] (HELM PEPTIDE1{[Hyp].G.Q}$$$$V2.0; N-terminus and C-terminus assumed) as the molecule, how does the pIC50 read?
**A.** 3.12

**Q.** With `NC(=O)CC[C@H](NC(=O)[C@@H]1CCCN1C(=O)CNC(=O)[C@@H]1CCCN1)C(=O)O` [PGPQ] (H-PGPQ-OH) as the molecule, how does the pIC50 read?
**A.** 2.45

**Q.** With `N[C@@H](CC(=O)O)C(=O)N1C[C@H](O)C[C@H]1C(=O)NCC(=O)N[C@@H](CCC(=O)O)C(=O)O` [DOGE] (HELM PEPTIDE1{D.[Hyp].G.E}$$$$V2.0) as the molecule, how does the pIC50 read?
**A.** 3.18

**Q.** With `O=C(O)CNC(=O)[C@@H]1C[C@@H](O)CN1` [OG] (HELM PEPTIDE1{[Hyp].G}$$$$V2.0) as the molecule, how does the pIC50 read?
**A.** 2.85

**Q.** With `O=C(O)CC[C@H](NC(=O)[C@H](CO)NC(=O)CNC(=O)[C@@H]1C[C@@H](O)CN1)C(=O)O` [OGSE] (HELM PEPTIDE1{[Hyp].G.S.E}$$$$V2.0) as the molecule, how does the pIC50 read?
**A.** 3.25

**Q.** With `NC(=O)CC[C@H](NC(=O)CNC(=O)[C@@H]1CCCN1)C(=O)N1CCC[C@H]1C(=O)O` [PGQP] (H-PGQP-OH) as the molecule, how does the pIC50 read?
**A.** 2.62

**Q.** With `O=C(O)CC[C@H](NC(=O)CNC(=O)[C@@H]1C[C@@H](O)CN1)C(=O)O` [OGE] (HELM PEPTIDE1{[Hyp].G.E}$$$$V2.0; N-terminus and C-terminus assumed) as the molecule, how does the pIC50 read?
**A.** 3.21

tested on: not listed separately; test: Coagulation parameters (PT, APTT, TT) after oral administration; type: in vivo, rat; details: SD rats, 65 μmol/kg bw, n = 6
Excerpt: The prothrombin time (PT), activated partial thromboplastin time (APTT), and thrombin time (TT) assay methods refer to our previous study. PT, APTT, and TT detection kits (Siemens, Shanghai, China) were employed for the determination of coagulation parameters according to the manufacturer’s instructions.

**Q.** For `COC(=O)[C@H](c1ccccc1Cl)N1CCc2sccc2C1` [clopidogrel, Clopidogrel hydrogen sulfate, reference compound], which “PT (prothrombin time)” value is on record?
**A.** altered the TT and PT significantly

**Q.** And the “TT (thrombin time)” value?
**A.** altered the TT and PT significantly

same assay, conditions: SD rats, 200 μmol/kg b.w., n = 6

**Q.** With `N[C@@H](CCC(=O)O)C(=O)N1C[C@H](O)C[C@H]1C(=O)NCC(=O)N[C@@H](CCC(=O)O)C(=O)O` [EOGE, Glu-Hyp-Gly-Glu] (HELM PEPTIDE1{E.[Hyp].G.E}$$$$V2.0) as the molecule, how does the “coagulation parameters, including PT, TT, and APTT” value read?
**A.** no significant effect

same assay, conditions: SD rats, 300 μmol/kg b.w., n = 6

**Q.** With `N[C@@H](CCC(=O)O)C(=O)N1C[C@H](O)C[C@H]1C(=O)NCC(=O)N[C@@H](CCC(=O)O)C(=O)O` [EOGE, Glu-Hyp-Gly-Glu] (HELM PEPTIDE1{E.[Hyp].G.E}$$$$V2.0) as the molecule, how does the “coagulation parameters, including PT, TT, and APTT” value read?
**A.** no significant effect

tested on: not listed separately; test: Thymus index and spleen index; type: in vivo, rat; details: SD rats, oral, 65 μmol/kg bw, n = 6
Procedure: After the rats were sacrificed, the thymuses and spleens were collected and weighed to obtain the thymus index (TI) and spleen index (SI). The TI and SI were calculated according to the following equation: TI/SI (mg/g) = (weight of thymus/spleen)/body weight.

**Q.** Which “thymus index (TI) and spleen index (SI) compared to vehicle group” value (“thymus index (TI) and spleen index (SI)” for short) does the source give for `COC(=O)[C@H](c1ccccc1Cl)N1CCc2sccc2C1` [clopidogrel, Clopidogrel hydrogen sulfate, reference compound] here?
**A.** no significant difference

same assay, conditions: SD rats, oral, 200 μmol/kg b.w., n = 6

**Q.** With `N[C@@H](CCC(=O)O)C(=O)N1C[C@H](O)C[C@H]1C(=O)NCC(=O)N[C@@H](CCC(=O)O)C(=O)O` [EOGE, Glu-Hyp-Gly-Glu] (HELM PEPTIDE1{E.[Hyp].G.E}$$$$V2.0) as the molecule, how does the “thymus index (TI) and spleen index (SI)” value read?
**A.** no significant difference

same assay, conditions: SD rats, oral, 300 μmol/kg b.w., n = 6

**Q.** For `N[C@@H](CCC(=O)O)C(=O)N1C[C@H](O)C[C@H]1C(=O)NCC(=O)N[C@@H](CCC(=O)O)C(=O)O` [EOGE, Glu-Hyp-Gly-Glu] (HELM PEPTIDE1{E.[Hyp].G.E}$$$$V2.0), which “thymus index (TI) and spleen index (SI)” value is on record?
**A.** no significant difference

tested on: thrombus formation; test: not given; details: oral administration; cited from earlier work
Excerpt: Collagen is a natural source of bioactive peptides and widely distributed in skin and bone tissue, which has a unique triple-helix structure with a repeated amino acid sequence of (Gly-X-Y)n, in which X and Y are typically Pro and Hyp. Hyp-Gly-containing peptides are abundant in collagen, and a large quantity of these peptides could be released after hydrolysis.

**Q.** For “OGEFG [peptide identified from Salmo Salar skin in a previous study]”, which “thrombus formation in vivo” value is on record?
**A.** attenuates thrombus formation without bleeding risks
